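A five-concentration, 48-hour dose response in 96-well plates underlies each endpoint, interpolated linearly between surrounding concentrations. At the GI50, growth is halved. TGI marks complete inhibition of growth.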
How the values were obtained:
Assay in all cases: NCI anticancer screen, dose series, 48 h
[1] = test system: 786-0 renal
[2] = test system: A498 renal
[3] = test system: A549 NSCLC
[4] = test system: ACHN renal
[5] = test system: BT-549 breast
[6] = test system: CAKI-1 renal
[7] = test system: CCRF-CEM leukemia
[8] = test system: COLO 205 colon
[9] = test system: DU-145 prostate
[10] = test system: EKVX NSCLC
[11] = test system: HCC-2998 colon
[12] = test system: HCT-116 colon
[13] = test system: HL-60(TB) leukemia
[14] = test system: HOP-62 NSCLC
[15] = test system: HOP-92 NSCLC
[16] = test system: HS 578T breast
[17] = test system: HT29 colon
[18] = test system: IGROV1 ovarian
[19] = test system: K-562 leukemia
[20] = test system: KM12 colon
[21] = test system: LOX IMVI melanoma
[22] = test system: M14 melanoma
[23] = test system: MALME-3M melanoma
[24] = test system: MCF7 breast
[25] = test system: MDA-MB-231 breast
[26] = test system: MDA-MB-435
[27] = test system: MOLT-4 leukemia
[28] = test system: NCI-H226 lung
[29] = test system: NCI-H23 lung
[30] = test system: NCI-H460 lung
[31] = test system: NCI-H522 lung
[32] = test system: NCI/ADR-RES ovarian
[33] = test system: OVCAR-4 ovarian
[34] = test system: OVCAR-5 ovarian
[35] = test system: OVCAR-8 ovarian
[36] = test system: PC-3 prostate
[37] = test system: RPMI-8226 leukemia
[38] = test system: RXF 393 renal
[39] = test system: SF-268 CNS
[40] = test system: SF-295 CNS
[41] = test system: SF-539 CNS
[42] = test system: SK-MEL-2 melanoma
[43] = test system: SK-MEL-28 melanoma
[44] = test system: SK-MEL-5 melanoma
[45] = test system: SK-OV-3 ovarian
[46] = test system: SN12C renal
[47] = test system: SNB-19 CNS
[48] = test system: SNB-75 CNS
[49] = test system: SR leukemia
[50] = test system: SW-620 colon
[51] = test system: T-47D breast
[52] = test system: TK-10 renal
[53] = test system: U251 CNS
[54] = test system: UACC-257 melanoma
[55] = test system: UACC-62 melanoma
[56] = test system: UO-31 renal

Compound: FC(F)(F)c1cc(Br)cc(-c2cc(-c3ccc4c(c3)OCCO4)[nH]n2)c1
- GI50 [1]: 0.0565 µM
- TGI [1]: 3.78 µM
- GI50 [2]: 0.0363 µM
- TGI [2]: 0.283 µM
- GI50 [3]: 0.146 µM
- TGI [3]: > 38.1 µM
- GI50 [4]: 0.0752 µM
- TGI [4]: > 100 µM
- GI50 [5]: 0.0567 µM
- TGI [5]: 2.22 µM
- GI50 [6]: 0.0793 µM
- TGI [6]: > 100 µM
- GI50 [7]: 0.0875 µM
- TGI [7]: > 39.5 µM
- GI50 [8]: 0.109 µM
- TGI [8]: 0.283 µM
- GI50 [9]: 0.284 µM
- TGI [9]: > 100 µM
- GI50 [10]: 0.645 µM
- TGI [10]: > 100 µM
- GI50 [11]: 0.29 µM
- TGI [11]: > 100 µM
- GI50 [12]: 0.0424 µM
- TGI [12]: 1.62 µM
- GI50 [13]: 0.0336 µM
- GI50 [14]: 0.226 µM
- TGI [14]: > 100 µM
- GI50 [15]: 1.15 µM
- TGI [15]: 5.51 µM
- GI50 [16]: 0.259 µM
- TGI [16]: > 100 µM
- GI50 [17]: 0.0426 µM
- TGI [17]: 0.533 µM
- GI50 [18]: 0.153 µM
- TGI [18]: > 100 µM
- GI50 [19]: 0.0373 µM
- TGI [19]: > 100 µM
- GI50 [20]: 0.0596 µM
- TGI [20]: > 52.1 µM
- GI50 [21]: 0.0296 µM
- TGI [21]: > 100 µM
- GI50 [22]: 0.0765 µM
- TGI [22]: > 38.6 µM
- GI50 [23]: 1.6 µM
- TGI [23]: > 100 µM
- GI50 [24]: 0.059 µM
- TGI [24]: > 100 µM
- GI50 [25]: 0.0785 µM
- TGI [25]: > 100 µM
- GI50 [26]: 0.0264 µM
- TGI [26]: 0.773 µM
- GI50 [27]: 0.196 µM
- TGI [27]: > 100 µM
- GI50 [28]: 0.214 µM
- TGI [28]: > 100 µM
- GI50 [29]: 0.376 µM
- TGI [29]: > 100 µM
- GI50 [30]: 0.0605 µM
- TGI [30]: 13.9 µM
- GI50 [31]: 0.0236 µM
- TGI [31]: 0.0694 µM
- GI50 [32]: 0.0517 µM
- TGI [32]: > 100 µM
- TGI [33]: > 100 µM
- GI50 [34]: 0.348 µM
- TGI [34]: > 100 µM
- GI50 [35]: 0.213 µM
- TGI [35]: 1.47 µM
- GI50 [36]: 0.0705 µM
- TGI [36]: > 38.5 µM
- GI50 [37]: 0.306 µM
- TGI [37]: > 22.9 µM
- GI50 [38]: 0.0478 µM
- TGI [38]: 0.45 µM
- GI50 [39]: 0.753 µM
- TGI [39]: > 100 µM
- GI50 [40]: 0.0318 µM
- GI50 [41]: 0.0651 µM
- TGI [41]: 0.757 µM
- GI50 [42]: 0.162 µM
- TGI [42]: > 100 µM
- GI50 [43]: 2.68 µM
- TGI [43]: > 100 µM
- GI50 [44]: 0.0841 µM
- TGI [44]: 2.54 µM
- GI50 [45]: 0.124 µM
- TGI [45]: > 56.6 µM
- GI50 [46]: 0.144 µM
- TGI [46]: 4.4 µM
- GI50 [47]: 0.108 µM
- TGI [47]: > 100 µM
- GI50 [48]: 0.12 µM
- TGI [48]: 0.925 µM
- GI50 [49]: 0.0364 µM
- TGI [49]: > 100 µM
- GI50 [50]: 0.054 µM
- TGI [50]: > 100 µM
- GI50 [51]: 0.683 µM
- TGI [51]: > 100 µM
- GI50 [52]: 12.3 µM
- TGI [52]: 63.4 µM
- GI50 [53]: 0.0785 µM
- TGI [53]: 4.86 µM
- GI50 [54]: 2.71 µM
- TGI [54]: > 100 µM
- GI50 [55]: 0.039 µM
- TGI [55]: > 100 µM
- GI50 [56]: 0.201 µM
- TGI [56]: > 100 µM
